Measured values published in US9562083B2, “Peptides and methods for inducing cell death” (Los Angeles Biomedical Research Institute at Harbor-UCLA …, priority 2010, dated 2017).

Assays:
[1] = test system: Acinetobacter baumannii isolates; assay: Radial diffusion assay, Example III; format: cell-based; conditions: pH 5.5 vs. pH 7.5
Protocol: (§1) The top eleven prioritized target sequences identified in Example I (see Table 21) were synthesized by solid-phase chain extension synthesis using conventional techniques. Each synthetic peptide was purified by RP-HPLC, and authenticated for purity and correct sequence by mass spectroscopy. Stock concentrations of the synthetic peptides were prepared at 1 mg/mL in 0.01% acetic acid and adjusted to pH 7.2. Synthetic peptides were assessed for antimicrobial efficacy, spectra, and conditional optima (pH 5.5 or 7.5) using the following modified radial diffusion assay, as detailed in Yount and Yeaman, PNAS […] (2004).
(§2) Molecular grade agarose (1.0%) in 10 mM NaH2PO4H2O was prepared, pH adjusted to 7.5 or 5.5, and autoclaved for 15 minutes at 121° C., then held in a waterbath set at 48° C. until used. Mueller Hinton II overlay agarose was prepared by adding molecular grade agarose to Mueller Hinton II Broth at a final concentration of 1.0%, pH adjusted to 7.5 or 5.5, autoclaved for 10 minutes at 121° C., and then held at 48° C. until used.
(§3) Trypticase Soy Broth (TSB) (10 mL) we inoculated with an overnight growth of the test organism and incubated three to six hours until the organism reached log phase. The cells were collected by centrifugation, washed in PBS, then 0.01% acetic acid adjusted to pH 7.2. The pellet was resuspended in TSB and standardized to a 0.5 McFarland turbidity standard. A 10 μl aliquot of the inoculum is added to 10 mL of the pH-adjusted 1.0% molecular grade agarose cooled to 48° C. resulting in a final inoculum concentration of 5×10^5 CFU/mL. The suspension is poured into a 15×100 mm Petri dish and allowed to solidify.
(§4) After solidification had occurred, five 4 mm diameter wells were bored into the agarose. The central well was used as the acetic acid control while 10 μl of peptide stock solution was added to each of the other wells resulting in a final concentration of 10 μg peptide/well. The plates were incubated upright for three hours at 37° C., then overlaid with 10 mL of Mueller Hinton II agarose. After the overlay solidified, the plates were inverted and incubated overnight at 37° C.
(§5) The synthetic peptides identified in Table 22 were assayed for antimicrobial activity against known pathogenic microorganisms. These pathogenic microorganisms included five species of bacteria (Staphylococcus aureus, Escherichia coli, Salmonella typhimurium, Pseudomonas aeruginosa and Bacillus subtilis) and one species of fungi (Candida albicans) (see Table 23). Zones of growth inhibition were measured and were grouped as complete and/or partial growth zones for the assayed microorganism. Zones were considered complete clearance when there was no visible growth (i.e. completely clear or free of growth). Zones were considered partial clearance when growth was impeded or partially cleared (i.e. reduction in microbial density as compared to adjacent confluent growth). The larger the zone size, the greater the antimicrobial activity of the test peptide. The lack of a zone is an indication of no antimicrobial activity of the test peptide against the target organism under the conditions tested.
(§6) Further to the methods disclosed in Example II, utilizing the same antimicrobial assay above, the antimicrobial activity of peptides Hol-III-4 (SEQ ID NO: 268) and Ncl-VIII-6 (SEQ ID NO: 152 was determined by identifying zones of growth inhibition.
(§7) Hol-III-4 and Ncl-VIII-6 peptides were assayed for antimicrobial activity against a panel of drug-resistant Gram-negative bacterial pathogens, specifically Pseudomonas aeruginosa, and various Acinetobacter spp. strains. […] The RP-1 peptide is well known in the art to have antimicrobial activity, as illustrated in Yeaman et al., Antimicrobial Agents and Chemotherapy, 46(12):3883-3891 (2002). The 6W-RP-1 peptide is a 6-Trp variant of RP-1, which also has antimicrobial activity, as illustrated in Kilelee et al, Antimicrobial Agents and Chemotherapy 54(10):4476-4479 (2010).

[2] = test system: Acinetobacter spp. strains (drug-resistant); assay: Radial diffusion assay, Example III; format: cell-based; conditions: pH 5.5 and pH 7.5; all strains tested
Protocol: as §1, §2, §3, §4, §5, §6, §7

[3] = test system: Pseudomonas aeruginosa strains (drug-resistant); assay: Radial diffusion assay, Example III; format: cell-based; conditions: pH 5.5 and pH 7.5; all strains tested
Protocol: as §1, §2, §3, §4, §5, §6, §7

Escherichia coli ML-35 = assay: Modified radial diffusion assay (zones of growth inhibition); format: cell-based; conditions: pH 5.5 versus pH 7.5
Protocol: (§8) An agar radial diffusion assay has been used as described herein to determine antimicrobial activities of proteins against microbial pathogens in vitro. One million CFU will be mixed into 10 ml (i.e., 1×10^5 CFU/ml) of melted 1% agarose (in 10 mM NaHPO4 and cooled to 42° C.) containing minimal nutrient and adjusted to either pH 5.5 or pH 7.2. The agar is solidified in culture dishes, and sample wells are formed. Peptides at various concentrations are dissolved in 10 μl of 0.01% acetic acid buffer (pH 5.5 or 7.2), loaded into individual wells, and incubated at 37° C. for three hours. The plate is then overlayed with 1% agarose containing nutrients and incubated (37° C., for at least 24 hours). Peptides purified by RP-HPLC lacking antimicrobial activity are tested in parallel as controls. Zones of inhibition are measured to quantify antimicrobial activity. This assay will not distinguish between microbicidal and microbiostatic actions, but is highly sensitive to peptides with one or both functions.
(§9) The following assay is designed to measure the relative antimicrobial activity of peptides by determining zones of growth inhibition.
as §1, §2, §3, §4
(§10) The synthetic peptides identified in Table 22 were assayed for antimicrobial activity against known pathogenic microorganisms. These pathogenic microorganisms included five species of bacteria (Staphylococcus aureus, Escherichia coli, Salmonella typhimurium, Pseudomonas aeruginosa and Bacillus subtilis) and one species of fungi (Candida albicans) (see Table 23). Zones of growth inhibition were measured and were grouped as complete and/or partial growth zones for the assayed microorganism. Zones were considered complete clearance when there was no visible growth (i.e. completely clear or free of growth). […]

[4] = test system: Pseudomonas aeruginosa 01; assay: as above; format: cell-based; conditions: pH 5.5 versus pH 7.5
Protocol: as §8, §9, §1, §2, §3, §4, §10

[5] = test system: Bacillus subtilis ATCC 6633; assay: as above; format: cell-based; conditions: pH 5.5 versus pH 7.5
Protocol: as §8, §9, §1, §2, §3, §4, §10

[6] = test system: Salmonella typhimurium 14028; assay: as above; format: cell-based; conditions: pH 5.5 versus pH 7.5
Protocol: as §8, §9, §1, §2, §3, §4, §10

[7] = known in the art; cited from earlier work

## H2N-IRLVSKYGKSKGIAYI-CONH2 (H-IRLVSKYGKSKGIAYI-NH2) [Ncl-VIII-6, designed from Nucleolin]
[1]
  pH dependence of antimicrobial activity: pH dependent
[2]
  antimicrobial activity (zone of inhibition): significant antimicrobial activity
[3]
  antimicrobial activity (zone of inhibition): significant antimicrobial activity
Escherichia coli ML-35
  effect of acidic pH on antimicrobial activity: did not appear to affect the activity
[4]
  effect of acidic pH on antimicrobial activity: did not appear to affect the activity
[5]
  effect of acidic pH on antimicrobial activity: did not appear to affect the activity
[6]
  effect of acidic pH on antimicrobial activity: did not appear to affect the activity

## H2N-SIGSLIKRFAYKKAGV-CONH2 (H-SIGSLIKRFAYKKAGV-NH2) [Hol-III-4, designed from Holin protein]
[1]
  pH dependence of antimicrobial activity: pH dependent
[2]
  antimicrobial activity (zone of inhibition): significant antimicrobial activity
[3]
  antimicrobial activity (zone of inhibition): significant antimicrobial activity
Escherichia coli ML-35
  effect of acidic pH on antimicrobial activity: did not appear to affect the activity
[4]
  effect of acidic pH on antimicrobial activity: did not appear to affect the activity
[5]
  effect of acidic pH on antimicrobial activity: did not appear to affect the activity
[6]
  effect of acidic pH on antimicrobial activity: did not appear to affect the activity

## H-ALFYFASKLYLKALYTKV-NH2 [BaxP-I-18]
Escherichia coli ML-35
  effect of acidic pH on antimicrobial activity: did not appear to affect the activity
[4]
  effect of acidic pH on antimicrobial activity: did not appear to affect the activity
[5]
  effect of acidic pH on antimicrobial activity: did not appear to affect the activity
[6]
  effect of acidic pH on antimicrobial activity: did not appear to affect the activity

## N-AALYKKKIIKKLLES-C [PMP-2, C-terminal helix of the consensus molecule cPMP]
[7]
  antimicrobial activity: known to have antimicrobial activity
